Like-named read-outs stand apart in the source and are kept apart here.
Tested on: C. acnes (BNCC 336649)
Conditions: for Concentration with antimicrobial activity >50%: C. acnes; for Concentration with antimicrobial activity >50% / Category of in vitro test antimicrobial activity against C. acnes: supplementary Table 5; for Antimicrobial activity > 50% against C. acnes: broth microdilution, 48 h, OD 630 nm
Experimental: The strain of C. acnes (BNCC 336649) was cultured in Wilkins-Chalgren Anaerobe Broth (QingDao RiShui Bio-technologies, 11071) at 37 °C under an anaerobic atmosphere performed by a Labiophy HL-B automatic hypoxic workstation (Dalian, Liaoning Province, Labiophy HL-B), inflated with a gas mix of 15% carbon dioxide, 83% nitrogen, and 2% hydrogen.
Logarithmic phase growth bacteria were used for antimicrobial testing.
To determine the MIC values, the broth microdilution method was used. […] Briefly, peptide samples were prepared as a stock solution in water and then diluted. 180 μL of the bacterial suspension (10^7 CFU/mL) and 20 μL of the tested sample were added together into 96-Well Deep Well Plates and incubated 24 h for E. coli and S. aureus or 48 h for C. acnes and C. albicans. For each test, two columns of the plate were kept for sterility control (broth only) and growth control (broth with bacterial inoculums, no antibiotics). The optical density of cultures was measured at 630 nm by a microplate reader (SYNERGY-H1, BioTek, USA) to estimate bacterial growth. All experiments were conducted in triplicate. We used ciprofloxacin (CPFX) as the antibiotic control for antimicrobial testing.

| Sequence | Concentration with antimicrobial activity >50% | Antimicrobial activity > 50% against C. acnes (at 25 µg/mL) | Antimicrobial activity > 50% against C. acnes (at 50 µg/mL) | Antimicrobial activity > 50% against C. acnes (at 100 µg/mL) | Category of in vitro test antimicrobial activity against C. acnes |
| --- | --- | --- | --- | --- | --- |
| KRIGSILGRWLHLAK [AMP-2] | 25 µg/mL | Inhibit (A peptide was deemed to have antimicrobial activity if C. acnes growth was inhibited by more than 50% at a given concentration) | Inhibit (A peptide was deemed to have antimicrobial activity if C. acnes growth was inhibited by more than 50% at a given concentration) | Inhibit (A peptide was deemed to have antimicrobial activity if C. acnes growth was inhibited by more than 50% at a given concentration) | Medium AMP |
| ALIKKLERTLRKAI [AMP-37] | no | No (A peptide was deemed to have antimicrobial activity if C. acnes growth was inhibited by more than 50% at a given concentration) | No (A peptide was deemed to have antimicrobial activity if C. acnes growth was inhibited by more than 50% at a given concentration) | No (A peptide was deemed to have antimicrobial activity if C. acnes growth was inhibited by more than 50% at a given concentration) | No AMP |
| VKRLKKAFKKLARLV [AMP-32] | – | No (A peptide was deemed to have antimicrobial activity if C. acnes growth was inhibited by more than 50% at a given concentration) | Inhibit (A peptide was deemed to have antimicrobial activity if C. acnes growth was inhibited by more than 50% at a given concentration) | Inhibit (A peptide was deemed to have antimicrobial activity if C. acnes growth was inhibited by more than 50% at a given concentration) | Medium AMP |
| GKLKKIWKNFGKIIK [AMP-20] | 25 µg/mL | Inhibit (A peptide was deemed to have antimicrobial activity if C. acnes growth was inhibited by more than 50% at a given concentration) | Inhibit (A peptide was deemed to have antimicrobial activity if C. acnes growth was inhibited by more than 50% at a given concentration) | Inhibit (A peptide was deemed to have antimicrobial activity if C. acnes growth was inhibited by more than 50% at a given concentration) | Medium AMP |
| KAIAALAKKIIKVAK [AMP-24] | no | No (A peptide was deemed to have antimicrobial activity if C. acnes growth was inhibited by more than 50% at a given concentration) | No (A peptide was deemed to have antimicrobial activity if C. acnes growth was inhibited by more than 50% at a given concentration) | No (A peptide was deemed to have antimicrobial activity if C. acnes growth was inhibited by more than 50% at a given concentration) | No AMP |
| KALAATVKKVAKLIK [AMP-34] | no | No (A peptide was deemed to have antimicrobial activity if C. acnes growth was inhibited by more than 50% at a given concentration) | No (A peptide was deemed to have antimicrobial activity if C. acnes growth was inhibited by more than 50% at a given concentration) | No (A peptide was deemed to have antimicrobial activity if C. acnes growth was inhibited by more than 50% at a given concentration) | No AMP |
| NRWLKAAKVAAKVI [AMP-36] | no | No (A peptide was deemed to have antimicrobial activity if C. acnes growth was inhibited by more than 50% at a given concentration) | No (A peptide was deemed to have antimicrobial activity if C. acnes growth was inhibited by more than 50% at a given concentration) | No (A peptide was deemed to have antimicrobial activity if C. acnes growth was inhibited by more than 50% at a given concentration) | No AMP |
| CKAVLRWVSRLKKL [AMP-39] | 25 µg/mL | Inhibit (A peptide was deemed to have antimicrobial activity if C. acnes growth was inhibited by more than 50% at a given concentration) | Inhibit (A peptide was deemed to have antimicrobial activity if C. acnes growth was inhibited by more than 50% at a given concentration) | Inhibit (A peptide was deemed to have antimicrobial activity if C. acnes growth was inhibited by more than 50% at a given concentration) | Medium AMP |
| FLGQLKNFFKKLAS [AMP-7] | – | No (A peptide was deemed to have antimicrobial activity if C. acnes growth was inhibited by more than 50% at a given concentration) | Inhibit (A peptide was deemed to have antimicrobial activity if C. acnes growth was inhibited by more than 50% at a given concentration) | Inhibit (A peptide was deemed to have antimicrobial activity if C. acnes growth was inhibited by more than 50% at a given concentration) | Medium AMP |
| GFKRIVHRLTKWLA [AMP-11] | 12.5 µg/mL | Inhibit (A peptide was deemed to have antimicrobial activity if C. acnes growth was inhibited by more than 50% at a given concentration) | Inhibit (A peptide was deemed to have antimicrobial activity if C. acnes growth was inhibited by more than 50% at a given concentration) | Inhibit (A peptide was deemed to have antimicrobial activity if C. acnes growth was inhibited by more than 50% at a given concentration) | Strong AMP |
| WLSKTAKKLWNVFKS [AMP-15] | 25 µg/mL | Inhibit (A peptide was deemed to have antimicrobial activity if C. acnes growth was inhibited by more than 50% at a given concentration) | Inhibit (A peptide was deemed to have antimicrobial activity if C. acnes growth was inhibited by more than 50% at a given concentration) | Inhibit (A peptide was deemed to have antimicrobial activity if C. acnes growth was inhibited by more than 50% at a given concentration) | Medium AMP |
| WFKAIPQAISALKKI [AMP-26] | 100 µg/mL | No (A peptide was deemed to have antimicrobial activity if C. acnes growth was inhibited by more than 50% at a given concentration) | No (A peptide was deemed to have antimicrobial activity if C. acnes growth was inhibited by more than 50% at a given concentration) | Inhibit (A peptide was deemed to have antimicrobial activity if C. acnes growth was inhibited by more than 50% at a given concentration) | Weak AMP |
| KIFWRVAKSLFKSY [AMP-30] | 100 µg/mL | No (A peptide was deemed to have antimicrobial activity if C. acnes growth was inhibited by more than 50% at a given concentration) | No (A peptide was deemed to have antimicrobial activity if C. acnes growth was inhibited by more than 50% at a given concentration) | Inhibit (A peptide was deemed to have antimicrobial activity if C. acnes growth was inhibited by more than 50% at a given concentration) | Weak AMP |
| LLSLIRRTVARLKKA [AMP-18] | 25 µg/mL | Inhibit (A peptide was deemed to have antimicrobial activity if C. acnes growth was inhibited by more than 50% at a given concentration) | Inhibit (A peptide was deemed to have antimicrobial activity if C. acnes growth was inhibited by more than 50% at a given concentration) | Inhibit (A peptide was deemed to have antimicrobial activity if C. acnes growth was inhibited by more than 50% at a given concentration) | Medium AMP |
| AKKALKAAAKIIKWL [AMP-19] | 25 µg/mL | Inhibit (A peptide was deemed to have antimicrobial activity if C. acnes growth was inhibited by more than 50% at a given concentration) | Inhibit (A peptide was deemed to have antimicrobial activity if C. acnes growth was inhibited by more than 50% at a given concentration) | Inhibit (A peptide was deemed to have antimicrobial activity if C. acnes growth was inhibited by more than 50% at a given concentration) | Medium AMP |
